Test results published in patent publication US20250188037A1, “N-(PYRROLIDIN-3-YL OR PIPERIDIN-4-YL)ACETAMIDE DERIVATIVES” (Takeda Pharmaceutical Company Limited, priority 2022, published 2025).

molecular target: SSTR4 (Homo sapiens (Human), UniProt P31391); experiment: Inhibition of forskolin stimulated cAMP in cells overexpressing SSTR4; assay type: cell-based; conditions: inhibition of forskolin stimulated cAMP in CHO-K1 cells overexpressing SSTR4; read-out: SSTR4 Activity pEC50 (converted)
Experimental: Inhibition of Forskolin Stimulated cAMP in Cells Overexpressing SSTR4
This cell-based assay measures the ability of compounds to inhibit forskolin stimulated cAMP in CHO-K1 cells overexpressing SSTR4. CHO-K1 cells overexpressing SSTR4 (CHO-SSTR4) are purchased from DiscoveRx (product code 95-0059C2). The CHO-SSTR4 cells are maintained in F12K media with 10% Fetal Bovine Serum (Hyclone), 1% Pen/Strep (Life Technologies), and 800 μg/mL G418 (Life Technologies). […] The next day, the culture media is removed from the cells and the cells are washed (added then removed) with Krebs Ringer Buffer (ZenBio, KRB-1000 mL). […] The cells are incubated in 10 μL compound/stimulation buffer for 30 minutes at room temperature. Cellular cAMP levels are detected with a HTRF LANCE Ultra cAMP kit (Perkin Elmer, catalog number TRF0264).
The assay is performed in accordance with the manufacturer's instructions. […] of diluted Eu—W8044 labeled streptavidin (dilution: 1:50 in cAMP Detection Buffer) is added to each well. Then 5 μL of diluted biotin cAMP (dilution: 1:150 in cAMP Detection Buffer) is added to each well. The plates are covered and allowed to incubate for 60 minutes at room temperature on a shaker. […] The pEC50 values are generated using Activity Base for Screening Data Management.

SSTR4, sequence (P31391 whole entry): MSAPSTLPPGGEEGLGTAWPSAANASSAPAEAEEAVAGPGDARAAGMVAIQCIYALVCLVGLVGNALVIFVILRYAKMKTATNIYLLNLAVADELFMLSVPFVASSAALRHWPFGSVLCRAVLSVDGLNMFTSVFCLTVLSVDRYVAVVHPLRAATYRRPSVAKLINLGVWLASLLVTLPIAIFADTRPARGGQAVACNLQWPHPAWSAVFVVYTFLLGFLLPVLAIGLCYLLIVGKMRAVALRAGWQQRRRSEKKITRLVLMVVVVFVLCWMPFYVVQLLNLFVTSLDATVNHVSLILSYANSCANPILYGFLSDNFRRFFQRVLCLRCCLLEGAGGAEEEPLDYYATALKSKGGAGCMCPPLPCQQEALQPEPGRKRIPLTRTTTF

SMILES	EC50 [nM]
CC(Oc1ccccc1Cl)C(=O)N[C@@H]1CCN(C)[C@H](C)C1 (stereo partly drawn) [Example 67, 2-(2-chlorophenoxy)-N-((2R,4R)-1,2-dimethylpiperidin-4-yl)propanamide]	132
Cc1ccccc1CC1(C(=O)N[C@H]2CCN(C)C[C@@H]2C)CC1 [Example 38, N-((3S,4S)-1,3-dimethylpiperidin-4-yl)-1-(2-methylbenzyl)cyclopropane-1-carboxamide]	14.1
C[C@@H]1C[C@@H](NC(=O)C(F)(F)Oc2ccccc2)CCN1 [Example 52, 2,2-difluoro-N-((2R,4S)-2-methylpiperidin-4-yl)-2-phenoxyacetamide]	170
CC[C@@H]1CN(C)CC[C@H]1NC(=O)C1(Cc2cccc(C)c2)CC1 (relative stereo) [Example 21, N-(trans-3-ethyl-1-methylpiperidin-4-yl)-1-(3-methylbenzyl)cyclopropane-1-carboxamide]	42.7
C[C@@H]1CN(C)CC[C@H]1NC(=O)C1(Cc2cccc(F)c2)CC1 (relative stereo) [Example 20, N-(trans-1,3-dimethylpiperidin-4-yl)-1-(3-fluorobenzyl)cyclopropane-1-carboxamide]	77.6
C[C@@H]1CN(C)CC[C@H]1NC(=O)C1(Cc2ccccc2Cl)CC1 (relative stereo) [Example 17, 1-(2-chlorobenzyl)-N-(trans-1,3-dimethylpiperidin-4-yl)cyclopropane-1-carboxamide]	89.1
CC1CC(NC(=O)C2(Oc3ccccc3Cl)CC2)CCN1C (centres unmarked) [Example 8, 1-(2-chlorophenoxy)-N-(1,2-dimethylpiperidin-4-yl)cyclopropane-1-carboxamide]	182
CN1CCC(NC(=O)C(F)(F)Oc2ccccc2)CC1 [Example 28, 2,2-difluoro-N-(1-methylpiperidin-4-yl)-2-phenoxyacetamide]	195
CC[C@@H]1CN(C)CC[C@H]1NC(=O)C1(Oc2ccccc2Cl)CC1 (relative stereo) [Example 7, 1-(2-chlorophenoxy)-N-(trans-3-ethyl-1-methylpiperidin-4-yl)cyclopropane-1-carboxamide]	178

Results, then the compound that gave them:

EC50 [nM]	SMILES
174	O=C(N[C@H]1CCNC[C@@H]1F)C1(Oc2ccccc2C2CC2)CC1 [Example 60, 1-(2-cyclopropylphenoxy)-N-((3S,4S)-3-fluoropiperidin-4-yl)cyclopropane-1-carboxamide]
34.7	Cc1cccc(CC2(C(=O)NC3CN(C)CC3c3ccccc3)CC2)c1 (centres unmarked) [Example 2, N-(1-methyl-4-phenylpyrrolidin-3-yl)-1-(3-methylbenzyl)cyclopropane-1-carboxamide]
102	CN1CC[C@H](NC(=O)C2(Cc3ccc(Cl)cc3)CC2)[C@@H](F)C1 [Example 39, 1-(4-chlorobenzyl)-N-((3S,4S)-3-fluoro-1-methylpiperidin-4-yl)cyclopropane-1-carboxamide]
182	O=C(NC1CCN2CCCC12)C1(Oc2ccccc2Cl)CC1 (centres unmarked) [Example 9, 1-(2-chlorophenoxy)-N-(hexahydro-1H-pyrrolizin-1-yl)cyclopropane-1-carboxamide]
141	Cc1ccc(CC2(C(=O)N[C@@H]3CCN(C)C[C@H]3C)CC2)cc1 (relative stereo) [Example 11, N-(trans-1,3-dimethylpiperidin-4-yl)-1-(4-methylbenzyl)cyclopropane-1-carboxamide]
117	C[C@H]1CN(C)CC[C@@H]1NC(=O)C(F)(F)Oc1ccccc1 [Example 40, N-((3S,4S)-1,3-dimethylpiperidin-4-yl)-2,2-difluoro-2-phenoxyacetamide]
20.4	O=C(N[C@H]1CCNC[C@@H]1F)C1(Cc2cccc(F)c2)CC1 [Example 44, 1-(3-fluorobenzyl)-N-((3S,4S)-3-fluoropiperidin-4-yl)cyclopropane-1-carboxamide]
123	CC(Oc1cccc(Cl)c1Cl)C(=O)N[C@H]1CCNC[C@@H]1F (stereo partly drawn) [Example 61, 2-(2,3-dichlorophenoxy)-N-((3S,4S)-3-fluoropiperidin-4-yl)propanamide]
